“Also recorded” adds a separate entry of the source.
Key:
[1] = tested on: 57BL/6 and Plaur−/− mice; experiment: right kidney cross-transplantation with LPS treatment (TEM and uPAR immunostaining); type: in vivo, mouse; conditions: for foot process effacement (TEM): LPS 10 mg/kg i.p., 24 h
Experimental: Right kidney cross-transplantation: Six 57BL/6 female mice and 6 Plaur^−/− female mice in the same age and body weight ranges (7-8 weeks, 15-18 g) were randomly recruited into this study. The right kidney from Plaur^−/− mice were transplanted into 57BL/6 mice at the right side and vice versa. Kidney transplantation was performed as previously described (Coffman, T. et al, J. Immunol. 151, 425-435 (1993); Han, W. R., Murray-Segal, L. J. and Mottram, P. L. Microsurgery. 19, 272-274 (1999)). After recovery from surgery, mice were randomly treated with LPS at 10 mg/kg body weight, i.p. or same amount of PBS for control. 24 h after LPS injection, mice were sacrificed, and kidney was taken out for further analysis.
Transmission electron microscopy (TEM): TEM was performed according to the standard protocols (Sever, S. et al. J. Clin. Invest. 117, 2095-2104 (2007)).
To further confirm the role of suPAR in proteinuria development and kidney disease, cross-kidney transplantation was performed and the effect of endogenous soluble form of uPAR was examined. The right kidney was excised from normal 57BL/6, and transplanted into Plaur^−/− mice on the right side and vice versa (FIG. 3A). Mice were randomly chosen to receive lipopolysaccharide (LPS) to induce proteinuria or PBS for control after recovery from surgery. […] For the PBS treated 57BL/6 mice however, foot process effacement was not remarkable in either transplanted Plaur^−/− kidney or native 57BL/6 kidney (FIG. 1E). […] In contrast, foot process effacement was not remarkable in either native Plaur^−/− kidney or in the transplanted 57BL/6 kidney of PBS controlled mice (FIG. 1F). […] In order to determine whether suPAR is responsible for the phenomena, the sections were immunostained from both native and transplanted kidney with uPAR antibody.

[2] = tested on: αvβ3 integrin; conditions: in vivo; cited from earlier work

lipopolysaccharide [LPS]
foot process effacement (TEM) ([1]; 57BL/6 mice, native 57BL/6 kidney): significant foot process effacement
foot process effacement (TEM) ([1]; 57BL/6 mice, transplanted Plaur−/− kidney): massive foot process effacement
podocyte uPAR expression (immunostaining) ([1]; LPS treated 57BL/6 mice, native 57BL/6 kidney): increased podocyte uPAR expression
podocyte uPAR expression or deposit (immunostaining) ([1]; LPS treated 57BL/6 mice, transplanted Plaur−/− kidney): clear uPAR expression or deposit
uPAR in podocytes (immunostaining) ([1]; LPS treated Plaur−/− mice, native Plaur−/− kidney): not any uPAR
uPAR expression (immunostaining) ([1]; LPS treated Plaur−/− mice, transplanted 57BL/6 kidney): increased uPAR expression
foot process effacement (TEM) ([1]; Plaur−/− mice, native Plaur−/− kidney): not
foot process effacement (TEM) ([1]; Plaur−/− mice, transplanted 57BL/6 kidney): readily observed

CC(C)[C@@H]1NC(=O)[C@@H](Cc2ccccc2)NC(=O)[C@H](CC(=O)O)NC(=O)CNC(=O)[C@H](CCCN=C(N)N)NC1=O [cycloRGDfV]
proteinuria caused by uPAR-β3-integrin signaling [2]: prevented and reduced; also recorded: blocked

— patent US20110212083A1, “ROLE OF SOLUBLE UPAR IN THE PATHOGENESIS OF PROTEINURIC KIDNEY DISEASE” (University of Miami Office of Technology Transfer, priority 2008, published 2011)
